In patent US10537575B2, “Phosphodiesterase inhibitors to repair brain and/or retinal injury in human newborns” (priority 2016, dated 2020):

Legend:
[1] = tested on: Long-Evans rat pups (neonatal HI); assay: Cerebellum injury after neonatal HI; format: in vivo; conditions: P30
Method: Neonatal HI was induced in male Long-Evans rat pups at postnatal day 10 (P10) by left common carotid ligation followed by a 2-hour exposure to 8% oxygen; sham operated rat pups served as the control. […] At P30, the rats were sacrificed, and the cerebellum was extracted. The internal granular layers and molecular layers of the cerebellum were measured across all groups on cresyl violet-stained cerebellum sections. Astrocytes expressing Vascular Endothelial Growth Factor (VEGF) in the internal granular layers and molecular layers were quantified using immunohistochemistry.

[2] = tested on: Long-Evans rat pups (neonatal HI); assay: Hippocampal injury and neuroinflammation after neonatal HI; format: in vivo; conditions: P30
Method: Neonatal HI was induced in male Long-Evans rat pups at postnatal day 10 (P10) by left common carotid ligation followed by 2-hour exposure to 8% oxygen. Sham operated rat pups served as control. […] At P30, rats were sacrificed and their brains extracted. CA1, CA3 and dentate gyrus (DG) areas of the ipsilateral hippocampus were analyzed for microgliosis (Iba1) and astrogliosis (GFAP), neuronal number (NeuN), and vascular density (collagen IV).

[3] = tested on: Long-Evans rat pups (neonatal HI); assay: Retinal immunohistochemistry after neonatal HI; format: in vivo; conditions: sildenafil 2, 10 or 50 mg/kg 7 days, P30
Text: Neonatal hypoxia-ischemia (HI) was induced in male Long-Evans rat pups at postnatal day 10 (P10) by left common carotid ligation followed by 2-hour exposure to 8% oxygen. […] At P30, rats were sacrificed and their eyes were extracted.

[4] = tested on: Long-Evans rat pups (term neonatal HIE model); assay: Neurons count (NeuN) in cortex at P30; format: in vivo; conditions: HI; for neuronal number near the infarct boundary zone, median (IQR): ipsilateral cortex
Method: Using the second slide prepared for each animal, an immunohistochemistry was performed to examine the number of mature neurons. Neurons were labeled with an anti-neuronal nuclei (NeuN) antibody (Millipore: MAB377, Billerica, Mass., USA) (dilution 1:500, incubation time 1 hour at room temperature) (Hendrickson M L et al., 2011). Sections then were incubated with the secondary antibody Alexa Fluor® 488 goat anti-rabbit IgG (Molecular Probes®, Life Technologies: A11034, Carlsbad, Calif., USA) (dilution 1:1000, incubation time 2 hours at 4° C.). These sections were rinsed with tris-buffered saline and cover slipped with Vectashield Mounting media containing 4,6-diamidino-2-phenylindole (DAPI) (Vector Laboratories: H1200, Burlingame, Calif., USA) to visualize cell nuclei. Cells co-labeled with NeuN and DAPI were identified as neurons. […] One investigator took pictures of the respective fields of view at 10× magnification.

[5] = tested on: Sprague-Dawley rats (rat model of ROP); assay: Flash electroretinograms in rat model of ROP (hyperoxia); format: in vivo; conditions: sildenafil 50 mg/kg per os twice daily P15 to P21, P29, p<0.05
Method: (§1) Sprague-Dawley rats were exposed to hyperoxia (i.e., 80% oxygen) interrupted by three 0.5-hour periods of normoxia (i.e., 21% oxygen) per day or room air only (i.e., 21% oxygen) from post-natal day 4 (P4) to 14 (P14). Pups were then housed in room air. […] Flash electroretinograms were recorded at P29 to assess the retinal function. At P31, retinas were extracted, sectioned and stained with toluidine blue to measure the thicknesses of the different retinal layers.

[6] = tested on: Sprague-Dawley rats (rat model of ROP); assay: Retinal layer thickness in rat model of ROP (hyperoxia); format: in vivo; conditions: ROP animals; sildenafil 50 mg/kg per os twice daily P15 to P21; P31; p<0.05
Method: as §1

[7] = tested on: Long-Evans rat pups (term neonatal HIE model); assay: Microvessel density (collagen IV staining) at P30; format: in vivo; conditions: HI, sildenafil 50 mg/kg, p<0.01
Method: In addition, using the fourth slide prepared for each animal, an immunohistochemistry with collagen IV staining also was used to assess microvessel density. Sections were labeled with an anti-collagen type IV antibody (EMD Millipore: AB769, Temecula, Calif., USA) (dilution 1:400, incubation time overnight at room temperature) (Tong X K et al., 2005). Then, these sections were incubated with the secondary antibody CyTM3-conjugated AffiniPure donkey anti-goat IgG (Cedarlane: 705-165-147, West Grove, Pa., USA) (dilution 1:400, incubation time 1 hour at room temperature). These sections were rinsed with tris-buffered saline and cover slipped with Vectashield Mounting media containing 4,6-diamidino-2-phenylindole (DAPI) (Vector Laboratories: H1200, Burlingame, Calif., USA) to visualize cell nuclei. To estimate microvessel density, single-layer immunoreactive blood vessels in all orientations were counted as individual microvessels. Collagen IV staining in large vessels with tunica media were disregarded in the microvessel counts (Hallene K L et al., 2006, Iwai M et al., 2007; Noguchi T et al., 2008; Rigau V et al., 2007; Wintermark P et al., 2013; Shaikh H et al., 2015). […] One investigator took pictures of the respective fields of view at 10× magnification.

[8] = tested on: PDE6; conditions: known; cited from earlier work

## CCCc1nn(C)c2c(=O)[nH]c(-c3cc(S(=O)(=O)N4CCN(C)CC4)ccc3OCC)nc12 [sildenafil]
[1]; oral sildenafil 2, 10 or 50 mg/kg twice daily 7 days
  thickness of internal granular layers and molecular layers of the cerebellum: improvement in the overall thickness of these layers
[1]; oral sildenafil
  VEGF expressing astrocytes in cerebellum: reduction of VEGF expressing astrocytes
[2]; HI, 50 mg/kg, vs sham vehicle
  neuronal number in the dentate gyrus: significantly increases
[2]; HI, higher doses (10 mg/kg and 50 mg/kg)
  number of activated microglia and reactive astrocytes in CA1 and dentate gyrus of the hippocampus: significantly reduced
[2]; treatment groups vs control group
  vascular density in hippocampus: no changes in vascular density
[3]
  neuroinflammation, number of astrocytes in retina: decreasing the number of astrocytes
  number of retinal ganglion cells and bipolar cells: restored the number of retinal ganglion cells and bipolar cells
[4]; high-dose sildenafil, p<0.001
  neuronal number near the infarct boundary zone, median (IQR): 1368 (1292; 1444) neurons/mm^2
  neuronal number in corresponding region of contralateral cortex, median (IQR): 1019 (948; 1106) neurons/mm^2
[4]; low-dose sildenafil, not significant
  neuronal number in corresponding region of contralateral cortex, median (IQR): 808 (586; 963) neurons/mm^2
[4]; medium-dose sildenafil, p<0.001
  neuronal number in corresponding region of contralateral cortex, median (IQR): 999 (930; 1107) neurons/mm^2
[4]; sildenafil 2 mg/kg, p<0.01
  neuronal number near the infarct boundary zone, median (IQR): 1118 (1069; 1238) neurons/mm^2
[4]; sildenafil 10 mg/kg, p<0.001
  neuronal number near the infarct boundary zone, median (IQR): 1222 (1170; 1338) neurons/mm^2
[5]
  scotopic and photopic b-wave amplitudes: improvement in scotopic and photopic b-wave amplitudes
[6]
  OPL thickness: improved OPL thickness
[7]
  microvessel density near the infarct boundary zone, median (IQR): 211 (182; 221)
[8]
  PDE6 inhibition: inhibits PDE6, but with a reduced efficiency
